Laboratory results as given in patent publication US20110136801A1, “Novel Compounds” (Dainippon Sumitomo Pharma Co. Ltd., priority 2009, published 2011).
pEC50: −log10 of the molar value.

Biological target: T1, human TLR7 (Homo sapiens, UniProt Q9NYK1)
T1 construct: expressed in transfected cells; host or cells: HEK293 cell line stably expressing the pNiFty2-SEAP reporter plasmid; TLR7 in pUNO vector, blasticidin selection
T1 sequence (Q9NYK1 27-1049): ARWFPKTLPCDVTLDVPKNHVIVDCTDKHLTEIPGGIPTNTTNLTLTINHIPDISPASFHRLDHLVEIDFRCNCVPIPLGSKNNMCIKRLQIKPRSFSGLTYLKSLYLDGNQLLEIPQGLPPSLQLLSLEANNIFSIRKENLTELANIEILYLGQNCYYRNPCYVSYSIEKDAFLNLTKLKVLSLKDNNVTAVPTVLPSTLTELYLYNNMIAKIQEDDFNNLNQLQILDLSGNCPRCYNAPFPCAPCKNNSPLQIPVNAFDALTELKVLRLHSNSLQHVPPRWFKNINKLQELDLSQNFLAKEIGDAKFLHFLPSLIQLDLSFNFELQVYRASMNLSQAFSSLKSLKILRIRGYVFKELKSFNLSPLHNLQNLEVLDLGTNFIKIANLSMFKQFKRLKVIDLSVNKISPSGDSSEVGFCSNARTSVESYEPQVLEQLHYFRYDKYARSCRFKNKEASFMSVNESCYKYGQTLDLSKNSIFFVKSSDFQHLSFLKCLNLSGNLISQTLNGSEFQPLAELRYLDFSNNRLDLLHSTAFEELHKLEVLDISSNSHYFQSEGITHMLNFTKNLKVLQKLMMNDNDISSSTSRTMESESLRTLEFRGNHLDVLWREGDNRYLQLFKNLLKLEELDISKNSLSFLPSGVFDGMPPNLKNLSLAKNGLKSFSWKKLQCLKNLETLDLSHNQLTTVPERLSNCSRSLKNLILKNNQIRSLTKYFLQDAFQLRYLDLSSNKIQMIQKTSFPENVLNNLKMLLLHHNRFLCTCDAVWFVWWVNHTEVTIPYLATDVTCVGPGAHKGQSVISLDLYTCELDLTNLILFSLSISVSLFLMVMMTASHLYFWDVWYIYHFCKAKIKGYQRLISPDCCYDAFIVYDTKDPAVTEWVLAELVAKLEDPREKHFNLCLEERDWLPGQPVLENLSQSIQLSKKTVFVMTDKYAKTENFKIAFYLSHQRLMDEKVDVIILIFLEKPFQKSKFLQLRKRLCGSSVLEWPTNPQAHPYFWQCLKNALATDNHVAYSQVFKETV
Test: Human TLR7 Assay (SEAP reporter in HEK293 cells);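 further: Read-out is secreted alkaline phosphatase made under an NFkB/ELAM-1 composite promoter, reporting TLR7-triggered NFkB activation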
Format: cell-based
Settings: HEK293 cell line expressing human TLR7 and pNiFty2-SEAP reporter, overnight incubation at 37° C., 0.1% DMSO; read-out: hTLR7 EC50
Description: The most common variant sequence of human TLR7 (represented by the EMBL sequence AF240467) was cloned into the mammalian cell expression vector pUNO and transfected into a HEK293 cell line already stably expressing the pNiFty2-SEAP reporter plasmid; integration of the reporter gene was maintained by selection with the antibiotic zeocin. Transfectants with stable TLR7 expression were selected using the antibiotic blasticidin. In this reporter cell-line, expression of secreted alkaline phosphatase (SEAP) is controlled by an NFkB/ELAM-1 composite promoter comprising five NFkB sites combined with the proximal ELAM-1 promoter. TLR signaling leads to the translocation of NFkB and activation of the promoter results in expression of the SEAP gene. TLR7-specific activation was assessed by determining the level of SEAP produced following overnight incubation of the cells at 37° C. with the standard compound in the presence of 0.1% (v/v) dimethylsulfoxide (DMSO). Concentration dependent induction of SEAP production by compounds was expressed as the concentration of compound which produced half of the maximal level of SEAP induction for that compound (EC50).

pEC50 | Compound
7.29 | CCN(CC)CC(=O)N(CCCn1c(CCOC)nc2c(N)nc3ccccc3c21)Cc1cccc(OC2(C(=O)OC)CC2)c1 [Example 79, Methyl 1-{3-[(N-{3-[4-amino-2-(2-methoxyethyl)-1H-imidazo[4,5-c]quinolin-1-yl]propyl}-2-{diethylamino}acetamido)methyl]phenoxy}cyclopropanecarboxylate]
7.39 | CCOC(=O)COc1cc(F)cc(CN(CCCn2c(CCOC)nc3c(N)nc4ccccc4c32)C(=O)CN(CC)CC)c1 [Example 124, Ethyl 2-{3-[(N-{3-[4-amino-2-(2-methoxyethyl)-1H-imidazo[4,5-c]quinolin-1-yl]propyl}-2-{diethylamino}acetamido)methyl]-5-fluorophenoxy}acetate]
< 5.00 | CCOC(=O)COc1cccc(CN(CCn2c(CCOC)nc3c(N)nc4ccccc4c32)C(=O)CN(CC)CC)c1 [Example 101, Ethyl 2-{3-[(N-{2-[4-amino-2-(2-methoxyethyl)-1H-imidazo[4,5-c]quinolin-1-yl]ethyl}-2-{diethylamino}acetamido)methyl]phenoxy}acetate]
7.00 | CCCCc1nc2c(N)nc3ccccc3c2n1CCCN(Cc1cccc(OCC(=O)OC(C)C)c1)C(=O)CN(CC)CC [Example 157, Isopropyl 2-[3-({N-[3-(4-amino-2-butyl-1H-imidazo[4,5-c]quinolin-1-yl)propyl]-2-(diethylamino)acetamido}methyl)phenoxy]acetate]
7.62 | CCOC(=O)C(C)Oc1cccc(CN(CCCn2c(CCOC)nc3c(N)nc4ccccc4c32)C(=O)CN(CC)CC)c1 (centres unmarked) [Example 52, Ethyl 2-{3-[(N-{3-[4-amino-2-(2-methoxyethyl)-1H-imidazo[4,5-c]quinolin-1-yl]propyl}-2-{diethylamino}acetamido)methyl]phenoxy}propanoate]
7.37 | CCOC(=O)COc1cccc(CN(CCCCn2c(CCOC)nc3c(N)nc4ccccc4c32)C(=O)NCCN(C)C)c1 [Example 127, Ethyl 2-{3-[(1-{4-[4-amino-2-(2-methoxyethyl)-1H-imidazo[4,5-c]quinolin-1-yl]butyl}-3-{2-(dimethylamino)ethyl}ureido)methyl]phenoxy}acetate]
6.46 | COCCc1nc2c(N)nc3ccccc3c2n1CCCN(Cc1cccc(OCC(=O)OC)c1)C(=O)CN(C)C [Example 17, Methyl (3-{[[3-(4-amino-2-(2-methoxyethyl)-1H-imidazo[4,5-c]quinolin-1-yl)propyl](N,N-dimethylglycyl)amino]methyl}phenoxy)acetate]
6.76 | CCN(CC)CC(=O)N(CCCn1c(CCOC)nc2c(N)nc3ccccc3c21)Cc1cccc(OCC(=O)OCCOC)c1 [Example 29, 2-Methoxyethyl 2-{3-[(N-{3-[4-amino-2-(2-methoxyethyl)-1H-imidazo[4,5-c]quinolin-1-yl]propyl}-2-(diethylamino)acetamido)methyl]phenoxy}acetate]
6.94 | CCN(CC)CC(=O)N(CCCn1c(CCOC)nc2c(N)nc3ccccc3c21)Cc1cccc(OCC(=O)OC2CCOCC2)c1 [Example 82, Tetrahydro-2H-pyran-4-yl 2-{3-[(N-{3-[4-amino-2-(2-methoxyethyl)-1H-imidazo[4,5-c]quinolin-1-yl]propyl}-2-{diethylamino}acetamido)methyl]phenoxy}acetate]
7.61 | CCN(CC)CC(=O)N(CCCCn1c(CCOC)nc2c(N)nc3ccccc3c21)Cc1cccc(OCC(=O)OC(C)(C)C)c1 [Example 48, tert-Butyl 2-{3-[(N-{4-[4-amino-2-(2-methoxyethyl)-1H-imidazo[4,5-c]quinolin-1-yl]butyl}-2-{diethylamino}acetamido)methyl]phenoxy}acetate]

Second part, the compound before the results:

Compound | pEC50
COCCc1nc2c(N)nc3ccccc3c2n1CCCCN(CCCN1CCOCC1)Cc1cccc(OC(C)(C)C(=O)OC)c1 [Example 137, Methyl 2-{3-[({4-[4-amino-2-(2-methoxyethyl)-1H-imidazo[4,5-c]quinolin-1-yl]butyl}{3-morpholinopropyl}amino)methyl]phenoxy}-2-methylpropanoate] | 7.06
COCCc1nc2c(N)nc3ccccc3c2n1CCCCN(CCCN1CCOCC1)Cc1cccc(OCC(=O)OC(C)C)c1 [Example 133, Isopropyl 2-{3-[({4-[4-amino-2-(2-methoxyethyl)-1H-imidazo[4,5-c]quinolin-1-yl]butyl}{3-morpholinopropyl}amino)methyl]phenoxy}acetate] | 6.94
CCCCc1nc2c(N)nc3ccccc3c2n1CCCN(Cc1cccc(OC(C)(C)C(=O)OCC)c1)C(=O)CN(C)C [Example 155, Ethyl 2-[3-({N-[3-(4-amino-2-butyl-1H-imidazo[4,5-c]quinolin-1-yl)propyl]-2-(dimethylamino)acetamido}methyl)phenoxy]-2-methylpropanoate] | 6.63
CCCCc1nc2c(N)nc3ccccc3c2n1CCCN(Cc1cccc(OC(C)(C)C(=O)OCC)c1)C(=O)CN1CCCC1 [Example 168, Ethyl 2-[3-({N-[3-(4-amino-2-butyl-1H-imidazo[4,5-c]quinolin-1-yl)propyl]-2-(pyrrolidin-1-yl)acetamido}methyl)phenoxy]-2-methylpropanoate] | 6.78
CCOCc1nc2c(N)nc3ccccc3c2n1CCCN(Cc1cccc(OC(C)(C)C(=O)OC)c1)C(=O)CN1CCCC1 [Example 171, Methyl 2-{3-[(N-{3-[4-amino-2-(ethoxymethyl)-1H-imidazo[4,5-c]quinolin-1-yl]propyl}-2-{pyrrolidin-1-yl}acetamido)methyl]phenoxy}-2-methylpropanoate] | 6.25
CCOC(=O)COc1cccc(CN(CCCn2c(CCOC)nc3c(N)nc4ccccc4c32)C(=O)CN(C)C)c1F [Example 95, Ethyl 2-{3-[(N-{3-[4-amino-2-(2-methoxyethyl)-1H-imidazo[4,5-c]quinolin-1-yl]propyl}-2-{dimethylamino}acetamido)methyl]-2-fluorophenoxy}acetate] | 6.35
CCCCc1nc2c(N)nc3ccccc3c2n1CCCN(Cc1cccc(OCC(=O)OC(C)C)c1F)C(=O)CN(C)C [Example 165, Isopropyl 2-[3-({N-[3-(4-amino-2-butyl-1H-imidazo[4,5-c]quinolin-1-yl)propyl]-2-(dimethylamino)acetamido}methyl)-2-fluorophenoxy]acetate] | 6.53
CCN(C)CC(=O)N(CCCn1c(CCOC)nc2c(N)nc3ccccc3c21)Cc1cccc(OCC(=O)OC2CCCC2)c1 [Example 111, Cyclopentyl 2-{3-[(N-{3-[4-amino-2-(2-methoxyethyl)-1H-imidazo[4,5-c]quinolin-1-yl]propyl}-2-{ethyl(methyl)amino}acetamido)methyl]phenoxy}acetate] | 6.91
CCCCc1nc2c(N)nc3ccccc3c2n1CCCN(CCCN1CCOCC1)Cc1cccc(OCC(=O)OC)c1 [Example 21, Methyl (3-{[[3-(4-amino-2-butyl-1H-imidazo[4,5-c]quinolin-1-yl)propyl](3-morpholinopropyl)amino]methyl}phenoxy)acetate] | 6.10
CCCCc1nc2c(N)nc3ccccc3c2n1CCCN(Cc1cccc(OC(C)(C)C(=O)OC)c1)C(=O)CN1CCCC1 [Example 169, Methyl 2-[3-({N-[3-(4-amino-2-butyl-1H-imidazo[4,5-c]quinolin-1-yl)propyl]-2-(pyrrolidin-1-yl)acetamido}methyl)phenoxy]-2-methylpropanoate] | 6.81
CCOCc1nc2c(N)nc3ccccc3c2n1CCCN(Cc1cccc(OC(C)(C)C(=O)OCC)c1)C(=O)CN1CCCC1 [Example 170, Ethyl 2-{3-[(N-{3-[4-amino-2-(ethoxymethyl)-1H-imidazo[4,5-c]quinolin-1-yl]propyl}-2-{pyrrolidin-1-yl}acetamido)methyl]phenoxy}-2-methylpropanoate] | 6.28
CCOC(=O)COc1cccc(CN(CCCn2c(CCOC)nc3c(N)nc4ccccc4c32)C(=O)CN(CC)CC)c1F [Example 93, Ethyl 2-{3-[(N-{3-[4-amino-2-(2-methoxyethyl)-1H-imidazo[4,5-c]quinolin-1-yl]propyl}-2-{diethylamino}acetamido)methyl]-2-fluorophenoxy}acetate] | 7.13
CCOC(=O)C(C)(C)Oc1cccc(CN(CCCn2c(CCOC)nc3c(N)nc4ccccc4c32)C(=O)CN(C)C)c1 [Example 148, Ethyl 2-{3-[(N-{3-[4-amino-2-(2-methoxyethyl)-1H-imidazo[4,5-c]quinolin-1-yl]propyl}-2-{dimethylamino}acetamido)methyl]phenoxy}-2-methylpropanoate] | 6.94
